Results published in PMC10180137 (Molecules, 2023).
Like-named read-outs stand apart in the source and are kept apart here.

Legend:
yeast α-glucosidase = assay: α-glucosidase inhibitory activity assay (p-NPG substrate, absorbance at 405 nm); assay type: biochemical, Saccharomyces cerevisiae
Experimental: This experiment was carried out in 96-well plates with reaction system of 230 μL. […] The 96-well plates were incubated in a constant-temperature incubator for 20 min at 37 °C, then 20 μL of 2.658 mmol/L p-PNG was added, and then incubation continued for another 28 min. The termination of the reaction was conducted by adding 80 μL of 0.2 mol/L Na2CO3 to each well. The absorbance was recorded for each well at 405 nm by a microplate reader, and the experiment was carried out three times in parallel. The measured absorbance values were processed by Graphpad Prism software 9.5 to calculate the IC50 values of the compounds.

α-glucosidase = assay: Inhibitory kinetics against α-glucosidase (Lineweaver–Burk plots); assay type: biochemical, Saccharomyces cerevisiae; conditions: Lineweaver–Burk plot; compound 0, 5.44, 10.87, 21.74 μM
Excerpt: The inhibitory kinetics of seven compounds (8-9, 11, 13, 24-26) that have strong α-glucosidase inhibitory activities were studied. The Lineweaver–Burk plot was used to determine their inhibition types against α-glucosidase. […] As for compound 8, the slope of the lines became greater with the increase in the concentration, but all straight lines intersected with the x-axis almost at one point (while Vmax decreased, Km was unchanged), showing that α-glucosidase inhibition mediated by compound 8 is noncompetitive, signifying that it can bind to either the free α-glucosidase or the enzyme–substrate complex to interfere the enzyme reaction without directly blocking the binding of the substrate to the enzyme.
Concentrations of active compounds 8-9, 11, 13, 24-26 (0, 5.44, 10.87, 21.74 μM) and the substrate p-NPG ([…]) were prepared, and an experimental protocol is described in detail in the literature. The data were acquired using the Lineweaver–Burk equation of enzyme kinetics.

[1] = IC50 ± SD, PBS pH 6.8, 37 °C, three times in parallel, read-out: IC50 (μM), inhibition activities on α-Glucosidase
[2] = unit inferred, read-out: IC50 against α-glucosidase (unit inferred)

COc1cc(O)c2c(c1)O[C@H](c1ccccc1)CC2=O [Compound 15, pinostrobin]
IC50 (yeast α-glucosidase; [1]): > 2000 µM

O=c1cc(-c2ccc(O)c(O)c2)oc2cc(O)ccc12 [Compound 25, 7, 3′, 4′-trihydroxy flavone]
IC50 (yeast α-glucosidase; [1]): 3.17 ± 0.55 µM | IC50 (yeast α-glucosidase; [2]): 3.17 ± 0.55 µM

COc1cc(/C=C/c2ccccc2)c(C(=O)O)c(O)c1CC=C(C)C [Compound 5, cajaninstilbene acid]
IC50 (yeast α-glucosidase; [1]): > 2000 µM

CC(C)=CCc1c(O)cc(O)c2c(=O)c(O)c(-c3ccc(O)c(O)c3)oc12 [Compound 11, 8-prenylquercretin]
IC50 (yeast α-glucosidase; [1]): 0.87 ± 0.05 µM | IC50 (yeast α-glucosidase; read-out: IC50 against α-glucosidase (text, with unit)): 0.87 ± 0.05 µM | inhibition type against α-glucosidase (α-glucosidase): anticompetitive

COc1cc(O)c2c(=O)cc(-c3ccccc3)oc2c1CC=C(C)C [Compound 13, 5-hydroxy-7-methoxy-8-prenylflavone]
IC50 (yeast α-glucosidase; [1]): 2.3 ± 0.51 µM | IC50 (yeast α-glucosidase; [2]): 2.3 ± 0.5 µM | inhibition type against α-glucosidase (α-glucosidase): mixed-competitive

COc1cc(O)cc(CC(=O)c2ccccc2)c1CC=C(C)C [Compound 7, cajanotone]
IC50 (yeast α-glucosidase; [1]): > 2000 µM

CC1(C)C=Cc2c(cc3occ(-c4ccc(O)cc4)c(=O)c3c2O)O1 [Compound 27, alpinum isoflavone]
IC50 (yeast α-glucosidase; [1]): > 2000 µM

COc1cc(O)cc(CCc2ccccc2)c1CC=C(C)C [Compound 8]
IC50 (yeast α-glucosidase; [1]): 7 ± 0.45 µM | inhibition type against α-glucosidase (α-glucosidase): noncompetitive

O=c1cc(-c2ccc(O)cc2)oc2c(C3OCC(O)C(O)C3O)c(O)cc(O)c12 [Compound 23, apigenin-8-C-α-L-arabinopyranoside]
IC50 (yeast α-glucosidase; [1]): > 2000 µM

3, 4′-O-dimethylquercetin [Compound 21]
IC50 (yeast α-glucosidase; [1]): 19.4 ± 1.02 µM

CC1(C)C=Cc2c(cc(O)c3c2O[C@H](c2ccc(O)cc2)CC3=O)O1 [Compound 26, 8-prenylnaringenin C]
IC50 (yeast α-glucosidase; [1]): 2.35 ± 0.54 µM | IC50 (yeast α-glucosidase; [2]): 2.35 ± 0.54 µM

COc1cc(O)c2c(c1)O[C@H](c1ccc(O)cc1)CC2=O [Compound 16, sakuranetin]
IC50 (yeast α-glucosidase; [1]): > 2000 µM

CC(C)=CCc1c(O)cc2oc(-c3ccccc3)cc(=O)c2c1O [Compound 12, 6-C-(3,3-dimethylallyl) chrysin]
IC50 (yeast α-glucosidase; [1]): > 2000 µM

COc1cc(O)c2c(c1CC=C(C)C)O[C@H](c1ccccc1)[C@@H](O)C2=O [Compound 14, 3,5-dihydroxy-7-methoxy-8-isopentenyl-dihydroflavone]
IC50 (yeast α-glucosidase; [1]): > 2000 µM

COc1cc(O)cc(/C=C/c2ccccc2)c1 [Compound 6, pinosylvin monomethyl ether]
IC50 (yeast α-glucosidase; [1]): > 2000 µM

COc1ccc2c(=O)c(-c3ccc(O)cc3O)coc2c1 [Compound 18, 7-methoxy-2′, 4′-dihydroxy isoflavone]
IC50 (yeast α-glucosidase; [1]): > 2000 µM

COc1ccc(-c2oc3cc(O)cc(O)c3c(=O)c2O)cc1O [Compound 19, tamarixetin]
IC50 (yeast α-glucosidase; [1]): 8.7 ± 0.08 µM

CC1(C)Oc2cc(/C=C/c3ccccc3)cc(O)c2CC1O (stereo not drawn) [Compound 4, chiricanine B]
IC50 (yeast α-glucosidase; [1]): > 2000 µM

COc1cc(/C=C/c2ccccc2)c(C(=O)O)c2c1C[C@@H](O)C(C)(C)O2 [Compound 2, cajanstilbenoid D]
IC50 (yeast α-glucosidase; [1]): > 2000 µM

CC(C)=CCc1c(O)cc(/C=C/c2ccccc2)cc1O [Compound 3, chiricanine A]
IC50 (yeast α-glucosidase; [1]): 30.3 ± 2.33 µM

COc1cc(/C=C/c2ccccc2)cc(O)c1CC=C(C)C [Compound 9, longistylin A]
IC50 (yeast α-glucosidase; [1]): 12.9 ± 1.31 µM | inhibition type against α-glucosidase (α-glucosidase): mixed-competitive

COc1cc(O)c2c3c1C[C@H](C(C)(C)O)[C@H](c1ccccc1)[C@H]3OC2=O [Compound 1, cajanstilbenoid C]
IC50 (yeast α-glucosidase; [1]): > 2000 µM

7, 3′, 4′-trihydroxy isoflavone [Compound 24]
IC50 (yeast α-glucosidase; [1]): 6.5 ± 0.42 µM

CC(C)=CCc1c(O)cc(O)c2c1O[C@H](c1ccc(O)cc1)[C@@H](O)C2=O [Compound 20, neophellamuretin]
IC50 (yeast α-glucosidase; [1]): 4.5 ± 0.49 µM | IC50 (yeast α-glucosidase; [2]): 4.5 ± 0.49 µM
